Reference: US4335249A, “Herbicidal diphenyl ethers, sulfides, sulfoxides and sulfones” (Rohm and Haas Company, priority 1976, dated 1982)

Key:
Type in all cases: in vivo
[1] = system: downybrome (Bromus tectorum); experiment: Postemergence herbicidal activity, downybrome; details: Bromus tectorum, post-emergence, 336 h, Post; for pest or weed control at 2241.7 g/ha: 2 lb/A
In short: (§1)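 Seeds were sown in soil flats and sprayed either right after planting (preemergence) or two weeks after germination (postemergence). Compound in acetone diluted with water was applied at a 50 gal/acre carrier volume at rates in lb/A. About two weeks later, average percent control was scored as percent of plants killed.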

[2] = system: velvetleaf (Abutilon theophrasti); experiment: Postemergence herbicidal activity, velvetleaf; details: Abutilon theophrasti, post-emergence, 336 h; for pest or weed control at 2241.7 g/ha: 2 lb/A
In short: (§2)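 Sown flats got a foliar or soil spray of compound in water-diluted acetone (carrier equivalent to 50 gallons/acre, rate in pounds per acre), given on the day of planting or, postemergence, once seedlings were two weeks old.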

marigold (Tagetes spp.) [3] = experiment: Postemergence herbicidal activity, marigold; details: post-emergence, 336 h; for pest or weed control at 2241.7 g/ha: 2 lb/A
In short: as §1

[4] = system: barnyardgrass (Echinochloa crusgalli); experiment: Preemergence herbicidal activity, barnyardgrass; details: Echinochloa crus-galli, pre-emergence, 336 h, Pre; for pest or weed control at 2241.7 g/ha: 2 lb/A
In short: as §2

marigold (Tagetes spp.) [5] = experiment: Preemergence herbicidal activity, marigold; details: pre-emergence, 336 h; for pest or weed control at 2241.7 g/ha: 2 lb/A
In short: as §1

wild oats (Avena fatua) [6] = experiment: Postemergence herbicidal activity, wild oats; details: Avena fatua, post-emergence, 336 h, Post, read-out: % control, Wild oat; for pest or weed control at 2241.7 g/ha: 2 lb/A
In short: as §1

foxtail (Setaria spp.) [7] = experiment: Postemergence herbicidal activity, foxtail; details: Setaria, post-emergence, 336 h, Post; for pest or weed control at 2241.7 g/ha: 2 lb/A
In short: as §1

foxtail (Setaria spp.) [8] = experiment: Preemergence herbicidal activity, foxtail; details: Setaria, pre-emergence, 336 h, Pre; for pest or weed control at 2241.7 g/ha: 2 lb/A
In short: as §1

[9] = system: velvetleaf (Abutilon theophrasti); experiment: Preemergence herbicidal activity, velvetleaf; details: Abutilon theophrasti, pre-emergence, 336 h, Pre; for pest or weed control at 2241.7 g/ha: 2 lb/A
In short: as §1

[10] = system: tomato (Lycopersicon esculentum); experiment: Postemergence herbicidal activity, tomato; details: Solanum lycopersicum, post-emergence, 336 h, Post; for pest or weed control at 2241.7 g/ha: 2 lb/A
In short: as §1

wild oats (Avena fatua) [11] = experiment: Preemergence herbicidal activity, wild oats; details: Avena fatua, pre-emergence, 336 h, Pre, read-out: % control, Wild oat; for pest or weed control at 2241.7 g/ha: 2 lb/A
In short: as §1

[12] = system: downybrome (Bromus tectorum); experiment: Preemergence herbicidal activity, downybrome; details: Bromus tectorum, pre-emergence, 336 h, Pre; for pest or weed control at 2241.7 g/ha: 2 lb/A
In short: as §1

[13] = system: barnyardgrass (Echinochloa crusgalli); experiment: Postemergence herbicidal activity, barnyardgrass; details: Echinochloa crus-galli, post-emergence, 336 h, Post; for pest or weed control at 2241.7 g/ha: 2 lb/A
In short: as §2

[14] = system: yellow nutsedge (Cyperus esculentus); experiment: Postemergence herbicidal activity, yellow nutsedge; details: Cyperus, post-emergence, 336 h; for pest or weed control at 2241.7 g/ha: 2 lb/A
In short: as §1

[15] = system: morningglory (Ipomoca spp.); experiment: Postemergence herbicidal activity, morningglory; details: Ipomoea, post-emergence, 336 h; for pest or weed control at 2241.7 g/ha: 2 lb/A
In short: as §1

[16] = system: cocklebur (Xanthium pensylvanicum); experiment: Preemergence herbicidal activity, cocklebur; details: Xanthium strumarium, pre-emergence, 336 h; for pest or weed control at 2241.7 g/ha: 2 lb/A
In short: as §1

[17] = system: morningglory (Ipomoca spp.); experiment: Preemergence herbicidal activity, morningglory; details: Ipomoea, pre-emergence, 336 h; for pest or weed control at 2241.7 g/ha: 2 lb/A
In short: as §1

[18] = system: cocklebur (Xanthium pensylvanicum); experiment: Postemergence herbicidal activity, cocklebur; details: Xanthium strumarium, post-emergence, 336 h; for pest or weed control at 2241.7 g/ha: 2 lb/A
In short: as §1

[19] = system: tomato (Lycopersicon esculentum); experiment: Preemergence herbicidal activity, tomato; details: Solanum lycopersicum, pre-emergence, 336 h, Pre; for pest or weed control at 2241.7 g/ha: 2 lb/A
In short: as §1

[20] = system: yellow nutsedge (Cyperus esculentus); experiment: Preemergence herbicidal activity, yellow nutsedge; details: Cyperus, pre-emergence, 336 h; for pest or weed control at 2241.7 g/ha: 2 lb/A
In short: as §1

Compound | pest or weed control at 2241.7 g/ha [1] | pest or weed control at 2241.7 g/ha [2] | pest or weed control at 2241.7 g/ha (marigold (Tagetes spp.) [3]) | pest or weed control at 2241.7 g/ha [4] | pest or weed control at 2241.7 g/ha (marigold (Tagetes spp.) [5]) | pest or weed control at 2241.7 g/ha (wild oats (Avena fatua) [6]) | pest or weed control at 2241.7 g/ha (foxtail (Setaria spp.) [7]) | pest or weed control at 2241.7 g/ha (foxtail (Setaria spp.) [8]) | pest or weed control at 2241.7 g/ha [9] | pest or weed control at 2241.7 g/ha [10] | pest or weed control at 2241.7 g/ha (wild oats (Avena fatua) [11]) | pest or weed control at 2241.7 g/ha [12] | pest or weed control at 2241.7 g/ha [13] | pest or weed control at 2241.7 g/ha [14] | pest or weed control at 2241.7 g/ha [15] | pest or weed control at 2241.7 g/ha [16] | pest or weed control at 2241.7 g/ha [17] | pest or weed control at 2241.7 g/ha [18] | pest or weed control at 2241.7 g/ha [19] | pest or weed control at 2241.7 g/ha [20] | also measured
CC(Oc1ccc(Oc2ccc(C(F)(F)F)cc2)cc1)C(N)=O (stereo not drawn) [Example 40, 2-[4-(4-trifluoromethylphenoxy)phenoxy] propanamide] | 40% | 0% | 0% | 99% | 0% | 95% | 95% | 100% | 0% | 0% | 60% | 80% | 99% | 0% | 0% | 0% | 0% | 20% | 0% | 0% | –
CC(C#N)Oc1ccc(Oc2ccc(C(F)(F)F)cc2)cc1 (stereo not drawn) [Example 41, 2-[4-(4-trifluoromethylphenoxy)phenoxy] propionitrile] | 40% | 0% | 0% | 99% | 0% | 99% | 60% | 100% | 0% | 0% | 70% | 80% | 100% | 0% | 0% | 0% | 0% | 0% | 0% | 0% | –
CCOC(=O)C(C)Oc1ccc([S+]([O-])c2ccc(C(F)(F)F)cc2Cl)cc1 (stereo not drawn) [Example 42] | – | – | – | – | – | – | – | – | – | – | – | – | – | – | – | – | – | – | – | – | pest or weed control at 4483.4 g/ha ([1]; 4 lb/A): 0%; pest or weed control at 4483.4 g/ha ([2]; 4 lb/A): 0%; pest or weed control at 4483.4 g/ha (marigold (Tagetes spp.) [3]; 4 lb/A): 0%; pest or weed control at 4483.4 g/ha ([4]; 4 lb/A): 95%; pest or weed control at 4483.4 g/ha (marigold (Tagetes spp.) [5]; 4 lb/A): 0%; pest or weed control at 4483.4 g/ha (wild oats (Avena fatua) [6]; 4 lb/A): 0%; pest or weed control at 4483.4 g/ha (foxtail (Setaria spp.) [7]; 4 lb/A): 0%; pest or weed control at 4483.4 g/ha (foxtail (Setaria spp.) [8]; 4 lb/A): 99%; pest or weed control at 4483.4 g/ha ([9]; 4 lb/A): 40%; pest or weed control at 4483.4 g/ha ([10]; 4 lb/A): 0%; pest or weed control at 4483.4 g/ha (wild oats (Avena fatua) [11]; 4 lb/A): 20%; pest or weed control at 4483.4 g/ha ([12]; 4 lb/A): 40%; pest or weed control at 4483.4 g/ha ([13]; 4 lb/A): 0%; pest or weed control at 4483.4 g/ha ([14]; 4 lb/A): 0%; pest or weed control at 4483.4 g/ha ([15]; 4 lb/A): 0%; pest or weed control at 4483.4 g/ha ([16]; 4 lb/A): 0%; pest or weed control at 4483.4 g/ha ([17]; 4 lb/A): 0%; pest or weed control at 4483.4 g/ha ([18]; 4 lb/A): 0%; pest or weed control at 4483.4 g/ha ([19]; 4 lb/A): 0%; pest or weed control at 4483.4 g/ha ([20]; 4 lb/A): 0%
